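Values below derive from 48-hour exposures of cells grown in 96-well plates, with endpoints linearly interpolated between the two concentrations bracketing the appropriate inhibition level. TGI: total growth inhibition.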 Where a SMILES comes first, the peptide text is derived from it.
Key:
Experiment in all cases: NCI tumour cell line growth inhibition, 48 h
SNB-19 CNS = tested on: SNB-19 CNS
OVCAR-5 ovarian = tested on: OVCAR-5 ovarian
MALME-3M melanoma = tested on: MALME-3M melanoma
HT29 colon = tested on: HT29 colon
OVCAR-4 ovarian = tested on: OVCAR-4 ovarian
NCI/ADR-RES ovarian = tested on: NCI/ADR-RES ovarian
UACC-257 melanoma = tested on: UACC-257 melanoma
HCC-2998 colon = tested on: HCC-2998 colon

| Structure (SMILES) | TGI (SNB-19 CNS) [µM] | TGI (OVCAR-5 ovarian) [µM] | TGI (MALME-3M melanoma) [µM] | TGI (HT29 colon) [µM] | TGI (OVCAR-4 ovarian) [µM] | TGI (NCI/ADR-RES ovarian) [µM] | TGI (UACC-257 melanoma) [µM] | TGI (HCC-2998 colon) [µM] |
| --- | --- | --- | --- | --- | --- | --- | --- | --- |
| CCCCCCCCCCOCCOCCOCCOCCCCC(O)CCCCCCCC1=C[C@H](C)OC1=O (stereo partly specified) | 27.2 | 30.6 | 46.3 | 24.4 | 37.7 | 41 | 19.8 | 27 |
| CC(C)(C)n1c(=O)n2n(c1=O)C1c3cccc4cccc(c34)C2C2c3cccc4cccc(c34)C1n1c(=O)n(C(C)(C)C)c(=O)n12 | > 100 | > 100 | > 100 | > 100 | – | > 100 | > 100 | > 100 |
| O=[N+]([O-])C(/C=C(\Cl)[N+](=O)[O-])=C(N1CCCCC1)N1CCCCC1 | > 100 | > 100 | 21.4 | > 100 | > 100 | > 100 | 69.2 | > 100 |
| CS(=O)(=O)O[C@H]1[C@H](O)c2ccccc2[C@@H]1N=[N+]=[N-] | > 100 | > 100 | > 100 | > 100 | > 100 | > 100 | > 100 | > 100 |
| O=C(NCCCN(CCCCN(CCCNC(=O)c1cc(S(=O)(=O)O)cc(O)c1O)C(=O)c1cc(S(=O)(=O)O)cc(O)c1O)C(=O)c1cc(S(=O)(=O)O)cc(O)c1O)c1cc(S(=O)(=O)O)cc(O)c1O | > 100 | – | > 100 | > 100 | > 100 | > 100 | > 100 | > 100 |
| Cn1cc(-c2nnc(-c3ccc(Cl)cc3)[nH]c2=O)c2ccccc21 | > 54.7 | > 100 | > 25.8 | > 24.6 | > 100 | 8.03 | > 24.3 | – |
| COC(=O)[C@]12CSC[C@H]1C[C@H](c1cccc3ccccc13)N2 | > 100 | > 100 | – | – | – | > 100 | > 100 | > 100 |
| O=[N+]([O-])/C(Cl)=C/C(=C1/Nc2ccccc2O1)[N+](=O)[O-] | 45.5 | – | 29.8 | > 100 | 84.4 | 73.2 | 25.1 | 28 |
| CCOC(=O)/C(=C\NC(C)(C)CO)c1nc2ccccc2[nH]1 | > 100 | > 100 | > 100 | > 100 | > 100 | > 100 | > 100 | > 100 |
| O=c1[nH]c(=O)n(CCOc2ccc(Cl)cc2)cc1Nc1ccccc1 | > 100 | > 100 | – | > 100 | > 100 | > 100 | > 100 | > 100 |
| COc1cc(/C=C2\N=C(c3ccccc3)N(c3nc4ccc(Sc5ccccc5)cc4[nH]3)C2=O)cc(OC)c1OC | > 100 | > 100 | 40.3 | 48.4 | > 100 | 74.6 | 45.6 | 30.3 |
| CCOC(=O)C(NC(=O)CC)(Nc1ccc(F)cc1F)C(F)(F)F (stereo unspecified) | > 100 | > 100 | – | > 100 | – | > 100 | > 100 | > 100 |
| COc1cc(C2OC[C@@H]3C(=O)OC[C@H]23)cc(O)c1OC (stereo partly specified) | > 100 | > 100 | – | > 100 | > 100 | > 100 | > 100 | > 100 |
| Cc1cn(C2CCN(CC3COC(C)(C)O3)O2)c(=O)[nH]c1=O (stereo unspecified) | – | > 100 | > 100 | > 100 | > 100 | > 100 | > 100 | – |
| O=c1[nH]c2c(c(=O)[nH]1)C(c1ccc([N+](=O)[O-])cc1)c1c([nH]c(=O)[nH]c1=O)O2 | > 100 | > 100 | – | > 100 | > 100 | – | > 100 | – |
| CC(C)Cn1cnc2c(Cl)nc3ccccc3c21 | > 100 | > 100 | > 100 | > 100 | > 100 | > 100 | > 100 | > 100 |
| CN(C)c1ccc(/C=C(\NC(=O)c2ccccc2)C(=O)Nc2cccc(C(=O)NCCCO)c2)cc1 | > 100 | > 100 | > 100 | > 100 | > 100 | > 100 | > 100 | > 100 |
| O=S(=O)(CCC[C@H]1[C@@H](CCOCc2ccccc2)C2CCCN1O2)c1ccccc1 (stereo partly specified) | > 100 | > 100 | > 100 | > 100 | > 100 | > 100 | > 100 | > 100 |
| C(#CC1(Nc2ccccc2)CCN(Cc2ccccc2)CC1)C1(Nc2ccccc2)CCN(Cc2ccccc2)CC1 | 52.9 | > 56.2 | > 65.6 | 39.4 | 53.7 | > 100 | – | > 100 |
| O=C(CN=C(CN(c1ccccc1)c1ccccc1)Oc1ccc(Cl)cc1Cl)n1ccnc1 | > 100 | > 100 | > 100 | > 100 | > 100 | > 100 | > 100 | – |
| Cc1ccc(C(=O)N/N=C(\N=Nc2ccccc2Cl)c2ccc(N(C)C)cc2)cc1 | 84.5 | > 100 | – | > 100 | 78.4 | > 100 | > 100 | > 100 |
| Nc1cc(Cl)ccc1SSc1ccc(Cl)cc1N | > 100 | 30.3 | 36.3 | 42.3 | 31.1 | 30.4 | 41.5 | – |
| CCC(C)C(NC(=O)C(CC(C)C)NC(=O)CNC(=O)C(NC(=O)C1CCCN1C(=O)C(CC(C)C)NC(=O)C(N)Cc1ccccc1)C(C)CC)C(=O)NC(CC(C)C)C(N)=O (stereo unspecified) (H-FLPIGLIL-NH2; configuration not given here) | > 75 | > 75 | > 75 | > 75 | > 75 | > 75 | > 75 | – |
| O=C1[C@@H](O)[C@@H]2CCCC[C@@]23CCCN13 | > 100 | > 100 | > 100 | > 100 | > 100 | > 100 | > 100 | > 100 |
| O=C1/C(=C/c2ccc(O)c(O)c2)CC/C1=C\c1ccc(O)c(O)c1 | 66.4 | > 100 | > 100 | > 100 | > 57.5 | > 100 | > 100 | > 100 |
| O=C1C=C(c2ccccc2)O/C1=C\C(=O)c1ccc(Cl)cc1 | > 100 | 88 | 29.4 | 13.1 | 58.2 | 52.4 | 37.1 | 87.5 |

| Structure (SMILES) | TGI (SNB-19 CNS) [µM] | TGI (OVCAR-5 ovarian) [µM] | TGI (MALME-3M melanoma) [µM] | TGI (HT29 colon) [µM] | TGI (OVCAR-4 ovarian) [µM] | TGI (NCI/ADR-RES ovarian) [µM] | TGI (UACC-257 melanoma) [µM] | TGI (HCC-2998 colon) [µM] |
| --- | --- | --- | --- | --- | --- | --- | --- | --- |
| Cc1cccc(C)c1N=Nc1ccc(O)c(CN(C)C)c1 | > 100 | > 100 | 76.2 | 69.6 | > 100 | > 100 | > 100 | 48.8 |
| CCC1CCC2c3c([nH]c4ccc(C)cc34)C3C(=O)N(N(C)C)C(=O)C3C2C1 (stereo unspecified) | > 100 | > 100 | 39.2 | > 100 | > 100 | > 53.5 | > 100 | > 100 |
| CN1CC2=C(NC(=S)NC2c2ccccc2Cl)/C(=C/c2ccccc2Cl)C1 (stereo unspecified) | > 100 | > 100 | 74.4 | > 100 | 76.7 | > 100 | > 100 | > 100 |
| CC(C(=O)n1ccnc1)N1c2ccccc2Sc2ccccc21 (stereo unspecified) | > 100 | > 100 | > 100 | > 100 | > 100 | > 100 | > 100 | – |
| COC(=O)/N=[N+](\[O-])C(c1ccccc1)c1ccccc1 | > 100 | > 100 | > 100 | > 100 | > 100 | > 100 | > 100 | > 100 |
| COC(=O)Cn1c(=O)oc2nc(-c3ccccc3)cc(C(F)(F)F)c21 | > 100 | > 100 | – | > 100 | > 100 | > 100 | > 100 | > 100 |
| CC1(C)CCCCCCCCCC2CC2CCC(C)(C)C1=O (stereo unspecified) | 88.3 | 40 | 49 | 39.6 | > 100 | 44.3 | 46.2 | – |
| O=C1CS(=O)(=O)C(c2cccc(Oc3ccccc3)c2)N1C1CC1 (stereo unspecified) | > 100 | > 100 | > 100 | > 100 | 64.2 | > 100 | > 100 | > 100 |
| C/C=C\C(CC(=O)OC)CC(=O)N(CCC1CN(S(=O)(=O)C(F)(F)F)c2ccccc21)Cc1ccc(OC)cc1OC (stereo unspecified) | > 100 | > 100 | > 100 | – | > 100 | > 100 | > 100 | > 100 |
| Cc1ccccc1Nc1nc(NNC(=O)Cc2ccccc2)nc(NNC(=O)c2ccncc2)n1 | – | – | > 10 | > 10 | > 10 | > 10 | > 10 | > 10 |
| CCCCC1(O)CC2CC1C(C)C2(C)C (stereo unspecified) | > 100 | > 100 | > 100 | > 100 | > 100 | > 100 | > 100 | > 100 |
| Cc1ccsc1C(=S)Nc1ccc(Cl)c(/C=N/OC(C)C)c1 | > 100 | > 100 | 98.9 | > 100 | 98.9 | > 100 | > 100 | 64.3 |
| COc1ccc2c(c1OC)C(=O)N/C2=C\c1c(CCN(C)C)cc2c(c1OC)OCO2 | > 100 | > 100 | > 100 | > 100 | > 100 | – | > 100 | > 100 |
| CCOC(=O)c1sc2nc1CSc1sc(=S)sc1SCc1nc(sc1C(=O)OCC)-c1nc(c(C(=O)OCC)s1)CSc1sc(=S)sc1SCc1nc-2sc1C(=O)OCC | > 10 | > 10 | > 10 | > 10 | > 10 | > 10 | > 10 | > 10 |
| CCNc1nnc(-c2ccccc2Nc2ccccc2-c2nnc(NCC)s2)s1 | > 100 | 48.5 | 58.4 | 60.5 | > 100 | > 100 | 90.3 | 27.8 |
| CN(C)CC1CCC/C(=C\c2ccccc2)C1=O (stereo unspecified) | 30.5 | 29 | 3.46 | 3.18 | 3.17 | 41.6 | 7.45 | 29 |
| CC1=CC(=O)N(n2c(-c3ccccc3)n[nH]c2=O)C1=O | > 100 | > 100 | > 100 | > 100 | > 100 | > 100 | > 100 | > 100 |
| O=C(O)C12CCC(CC1=O)C2 (stereo unspecified) | > 100 | > 100 | > 100 | > 100 | > 100 | > 100 | > 100 | – |
| Cc1cc(S(=O)(=O)NC(=NCCc2ccccc2)NN)c(S)cc1Cl | 36.7 | 36.8 | 68.6 | > 100 | > 100 | 57.8 | > 100 | 50.6 |
| C=CC1(c2ccc3ccccc3c2)OCC(CC)O1 (stereo unspecified) | > 100 | > 100 | 93.2 | 91.2 | > 100 | > 100 | > 100 | > 100 |
| S=C1CC(c2ccccc2)Sc2cc(Cl)ccc2N1 (stereo unspecified) | 38.7 | > 100 | 93.6 | > 100 | 28 | 30.5 | > 100 | – |
| CCOC(=O)N/N=C(\CC)OCC | > 100 | > 100 | > 100 | – | – | > 100 | > 100 | > 100 |
| C#CCOCn1cc(C)c(=O)[nH]c1=O | > 100 | > 100 | > 100 | > 100 | – | > 100 | > 100 | > 100 |
| O=c1[nH]nc(Cc2ccccc2)n1/N=C/c1ccc([N+](=O)[O-])cc1 | – | > 100 | > 100 | > 100 | > 100 | > 100 | > 100 | > 100 |
| C[N+]12C=CC=C1C(N1CCCC1)c1scc(-c3ccc(F)cc3)c12 (stereo unspecified) | > 100 | > 100 | > 100 | 45.3 | – | > 100 | – | – |
